Results reported in patent publication US10947245B2, “Crystal form A of 2-butoxy-7-(4-(pyrrolidin-1-ylmethyl)benzyl)-5H-pyrrolo[3,2-d]pyrimidin-4-amine for inhibiting toll-like receptor activity” (priority 2016, dated 2021).

Columns and labels:
[1] = target: T1, Toll-like receptor 7 (Homo sapiens, UniProt Q9NYK1); test: Toll-like receptor 7 in vitro receptor binding activity screen (HEK-blue hTLR7 cell, Quanti-Blue alkaline phosphatase readout); format: cell-based; settings: versus GS-9620
T1 construct: host or cells: HEK-blue hTLR7 cell (HEK293-derived reporter line)
T1 sequence (Q9NYK1 27-1049): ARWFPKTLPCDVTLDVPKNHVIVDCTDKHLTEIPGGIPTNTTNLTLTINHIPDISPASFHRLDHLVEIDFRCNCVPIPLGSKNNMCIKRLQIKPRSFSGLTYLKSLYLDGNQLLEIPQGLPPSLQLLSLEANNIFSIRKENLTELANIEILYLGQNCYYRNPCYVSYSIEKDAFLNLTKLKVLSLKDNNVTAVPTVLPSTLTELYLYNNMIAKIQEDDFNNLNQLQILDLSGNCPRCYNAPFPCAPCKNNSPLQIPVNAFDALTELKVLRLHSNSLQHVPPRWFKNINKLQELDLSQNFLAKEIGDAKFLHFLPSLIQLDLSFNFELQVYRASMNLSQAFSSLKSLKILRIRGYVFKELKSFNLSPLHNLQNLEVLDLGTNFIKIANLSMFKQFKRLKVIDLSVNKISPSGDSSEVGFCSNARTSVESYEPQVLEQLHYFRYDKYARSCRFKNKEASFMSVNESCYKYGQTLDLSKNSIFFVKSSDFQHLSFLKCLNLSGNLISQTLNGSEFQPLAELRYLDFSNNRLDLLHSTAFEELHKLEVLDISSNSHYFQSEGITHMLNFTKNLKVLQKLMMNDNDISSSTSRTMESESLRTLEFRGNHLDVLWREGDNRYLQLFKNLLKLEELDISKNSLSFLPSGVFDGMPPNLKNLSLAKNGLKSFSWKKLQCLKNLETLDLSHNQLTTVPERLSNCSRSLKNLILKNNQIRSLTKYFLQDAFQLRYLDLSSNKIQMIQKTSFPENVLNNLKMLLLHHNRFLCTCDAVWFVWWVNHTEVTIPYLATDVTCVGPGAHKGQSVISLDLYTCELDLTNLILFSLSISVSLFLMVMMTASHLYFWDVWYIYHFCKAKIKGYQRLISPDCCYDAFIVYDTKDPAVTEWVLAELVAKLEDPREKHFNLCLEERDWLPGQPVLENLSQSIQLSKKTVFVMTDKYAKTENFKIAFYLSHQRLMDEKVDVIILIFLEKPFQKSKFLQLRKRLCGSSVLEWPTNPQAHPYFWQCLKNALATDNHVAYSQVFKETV
Experimental: (§1) Efficacy example 1: Toll-like receptor 7 and Toll-like receptor 8 in vitro receptor binding activity screen
(§2) HEK-blue hTLR7 cell and HEK-blue hTLR8 cell (available from InvivoGen)
(§3) The compounds were gradient diluted with DMSO in 3-fold using liquid work station POD starting at a concentration of 10 mmol/L and 10 points were diluted (2nd column to 11th column, and each point was duplicated). At 12th column, 1 μL of 5 mg/mL positive compound R848 was added as positive control; and at 1st column, 1 μL of DMSO was added as negative control. Each well contained 1 μL of DMSO.
(§4) 2. The cells in culture flask were collected and the cell density was diluted to 250,000 cells/mL.
(§5) 3. 200 μL (50,000 cells/well) of cell suspension was added into prepared compound plate and the final concentration of DMSO in each well was 0.5%.
(§6) 4. The culture plates containing cells and the compounds were incubated in CO2 incubator for 24 h at 37° C., 5% CO2.
(§7) 5. After 24 h incubation, 20 μL of supernatant was removed from each well to a 96-well transparent assay plate. To each well of the assay plate was added 180 μL of Quanti-Blue reagent and the plate was incubated in an incubator at 37° C., 5% CO2 for 1 h.
(§8) 6. After 1 h, the content of alkaline phosphatase in 20 μL of supernatant was determined using Microplate Reader OD650.
(§9) 7. EC50 of each compound was obtained with Prism software.

[2] = target: T2, Toll-like receptor 8 (Homo sapiens, UniProt Q9NR97); test: Toll-like receptor 8 in vitro receptor binding activity screen (HEK-blue hTLR8 cell, Quanti-Blue alkaline phosphatase readout); format: cell-based; settings: versus GS-9620
T2 construct: host or cells: HEK-blue hTLR8 cell (HEK293-derived reporter line)
T2 sequence (Q9NR97 27-1041): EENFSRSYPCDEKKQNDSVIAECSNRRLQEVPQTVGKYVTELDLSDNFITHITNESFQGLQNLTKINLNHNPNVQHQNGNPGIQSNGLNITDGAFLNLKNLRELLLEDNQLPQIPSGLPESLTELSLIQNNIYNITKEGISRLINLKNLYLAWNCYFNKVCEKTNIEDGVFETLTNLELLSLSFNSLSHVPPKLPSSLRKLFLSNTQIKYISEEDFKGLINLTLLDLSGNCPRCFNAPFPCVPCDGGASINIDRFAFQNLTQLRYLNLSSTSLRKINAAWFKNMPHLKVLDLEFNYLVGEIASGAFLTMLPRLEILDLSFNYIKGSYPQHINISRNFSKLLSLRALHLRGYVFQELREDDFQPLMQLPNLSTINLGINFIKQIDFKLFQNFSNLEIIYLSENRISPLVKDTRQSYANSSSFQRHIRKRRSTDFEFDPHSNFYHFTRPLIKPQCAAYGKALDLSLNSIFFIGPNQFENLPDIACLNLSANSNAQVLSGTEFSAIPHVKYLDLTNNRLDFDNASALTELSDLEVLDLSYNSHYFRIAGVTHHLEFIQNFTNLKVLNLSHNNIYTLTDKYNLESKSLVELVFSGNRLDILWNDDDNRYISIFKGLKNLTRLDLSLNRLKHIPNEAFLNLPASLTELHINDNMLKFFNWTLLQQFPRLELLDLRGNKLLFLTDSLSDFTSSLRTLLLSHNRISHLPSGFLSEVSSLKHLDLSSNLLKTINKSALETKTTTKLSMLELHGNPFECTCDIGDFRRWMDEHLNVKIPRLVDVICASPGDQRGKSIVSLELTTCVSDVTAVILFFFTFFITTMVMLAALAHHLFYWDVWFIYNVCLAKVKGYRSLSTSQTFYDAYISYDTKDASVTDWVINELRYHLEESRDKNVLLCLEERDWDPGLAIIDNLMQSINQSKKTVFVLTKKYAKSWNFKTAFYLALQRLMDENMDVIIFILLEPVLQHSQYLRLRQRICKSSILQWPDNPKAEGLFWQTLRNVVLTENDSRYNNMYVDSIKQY
Experimental: as §1, §2, §3, §4, §5, §6, §7, §8, §9

[3] = system: human peripheral blood mononuclear cells (PBMC); test: Peripheral blood mononuclear cell test: cytokine stimulation (CBA, flow cytometer); format: cell-based; settings: for TNF-α MEC / IFN-α MEC: human PBMC, 24 h; for IFN-α MEC: lowest drug concentration stimulating the production of 30 pg/mL of IFN-α
Experimental: The purpose of this example is to determine the expression level of cytokines 24 h after stimulation to human peripheral blood mononuclear cells (PBMC) with the compound of formula I.
The cell supernatant was assayed without dilution and the levels of IFN-α were directly determined. The compound of formula I was firstly formulated into 20 mM DMSO stock solution during the test and was gradient diluted with cell medium in 10-fold with the total number of 11 diluting points. The compounds in 9 diluting points (the highest concentration was 200 μmol/L) were added into 96-well plate with 50 μL in each well. Fresh human peripheral blood mononuclear cells were inoculated, with 150 μL in each well containing 450,000 cells. The cell culture plate was incubated in an incubator at 37° C., 5% CO2 for 24 h. After incubation, the culture plate was centrifuged at 1200 rpm for 5 min and the supernatant was collected and stored at −20° C. for determination. The determination of cytokine was performed using Cytometric Bead Array (CBA) of BD-Pharmingen on flow cytometer. Using the above determining method, the lowest drug concentration stimulating the production of 30 pg/mL of IFN-α was designated as the MEC value in the cytokine stimulating test.

[4] = High humidity stability test (40° C./75% humidity, open); format: physicochemical; settings: for Appearance / Content / Total content of impurities: 40° C./75% humidity (open)
Experimental: The crystal form A of the compound of formula I was tested in the accelerated test under high humidity conditions for stability in accordance with Guidelines for the Stability Test of Pharmaceutical Ingredients and Pharmaceutical Preparations (Chinese Pharmacopoeia 2010 Appendix XIXC).
The crystal form A prepared in Example 1 was subjected to an accelerated test in a constant temperature and humidity vessel under the conditions of 40° C./75% humidity (open). The samples were taken for test on day 30, day 60 and day 90, respectively.

[5] = High temperature stability test (60° C., open container); format: physicochemical; settings: for Appearance / Content / Total content of impurities: open container
Experimental: The crystal form A of the compound of formula I was tested in the accelerated test under high temperature conditions for stability in accordance with Guidelines for the Stability Test of Pharmaceutical Ingredients and Pharmaceutical Preparations (Chinese Pharmacopoeia 2010 Appendix XIXC).
The crystal form A prepared in Example 1 was placed in an open-clean container at 60° C. The samples were taken for test on day 10, day 20 and day 30, respectively.

CCCCOc1nc(N)c2[nH]cc(Cc3ccc(CN4CCCC4)cc3)c2n1 [Compound of formula I, 2-butoxy-7-(4-(pyrrolidin-1-ylmethyl)benzyl)-5H-pyrrolo[3,2-d]pyrimidin-4-amine]
in vitro receptor binding activity to Toll-like receptor 7 compared with control GS-9620 (in words) [1]: higher in vitro receptor binding activity to Toll-like receptor 7 than the control
in vitro receptor binding activity to Toll-like receptor 8 compared with control GS-9620 (in words) [2]: lower in vitro receptor binding activity to Toll-like receptor 8 than the control
TNF-α MEC [3]: 500 nM
IFN-α MEC [3]: 5 nM
TNF-α inducing activity compared with control GS-9620 (in words) ([3]; versus GS-9620): comparable TNF-α inducing activity
in vitro IFN-α inducing activity of PBMCs compared with control GS-9620 (in words) ([3]; versus GS-9620): better in vitro IFN-α inducing activity of PBMCs

CCCCOc1nc(N)c2[nH]cc(Cc3ccc(CN4CCCC4)cc3)c2n1 [crystal form A, 2-butoxy-7-(4-(pyrrolidin-1-ylmethyl)benzyl)-5H-pyrrolo[3,2-d]pyrimidin-4-amine]
Appearance ([4]; day 0 (initial)): White powder
Content ([4]; day 0 (initial)): 100.2%
Total content of impurities ([4]; day 0 (initial)): 0.92%
Appearance ([4]; day 30): White powder
Content ([4]; day 30): 99.9%
Total content of impurities ([4]; day 30): 0.92%
Appearance ([4]; day 60): White powder
Content ([4]; day 60): 99.9%
Total content of impurities ([4]; day 60): 0.65%
Appearance ([4]; day 90): White powder
Content ([4]; day 90): 100.2%
Total content of impurities ([4]; day 90): 0.93%
stability in high humidity conditions (in words) ([4]; 40° C./75% humidity, up to 90 days): good stability in high humidity conditions
Appearance ([5]; day 0 (initial)): White powder
Content ([5]; day 0 (initial)): 99.8%
Total content of impurities ([5]; day 0 (initial)): 0.92%
Appearance ([5]; day 10): Light yellow powder
Content ([5]; day 10): 98.5%
Total content of impurities ([5]; day 10): 1.10%
Appearance ([5]; day 20): Light yellow powder
Content ([5]; day 20): 98.1%
Total content of impurities ([5]; day 20): 1.18%
Appearance ([5]; day 30): Light yellow powder
Content ([5]; day 30): 98.8%
Total content of impurities ([5]; day 30): 1.29%
stability in high temperature conditions (in words) ([5]; up to 30 days): good stability in high temperature conditions

CCCCOc1nc(N)c2c(n1)N(Cc1cccc(CN3CCCC3)c1)CC(=O)N2 [GS-9620, reference compound]
TNF-α MEC [3]: 500 nM
IFN-α MEC [3]: 50 nM
